Results published in patent US9730913B2 (THE JOHNS HOPKINS UNIVERSITY, priority 2011, dated 2017).
In brackets after ≈: the same amount, converted by molar mass. Several values for one entry are separate records, joined by “and”; a condition that tells them apart may be missing. Identical values can stand only once.

What was measured:
HSA = HSA (Homo sapiens, UniProt P02768); test: HSA binding (Kd)
Solubility = type: physicochemical
AmpC β-lactamase = AmpC β-lactamase (Escherichia coli, UniProt P00811); test: Spectrophotometric nitrocefin hydrolysis inhibition assay, AmpC
[1] = target: wild type TEM-1 β-lactamase (Escherichia coli, UniProt P62593); test: Spectrophotometric nitrocefin hydrolysis inhibition assay, TEM-1; type: biochemical; settings: for IC50: inhibition values are IC50 unless noted
Method: (§1) The inhibition of beta lactamase was determined spectrophotometrically. Beta lactamase activity was followed by measuring the change in absorbance upon hydrolysis of nitrocefin, [3-(2,4-dinitrostyryl)-(6R,7R)-7-(2-thienylacetamido)-ceph-3-em-4-carboxylic acid, E-isomer], (Calbiochem, San Diego, Calif., USA) at 486 nm. Inhibition constants (Ki) for the inhibitors are obtained at the desired temperature and solvent conditions by measuring the rate of substrate hydrolysis at increasing amounts of inhibitors. All inhibition assays were performed at 25° C. in 50 mM sodium phosphate, 5% DMSO, pH 7.0, keeping the enzyme concentration at 5 nM and the substrate concentration at 167 μM. Reaction was started by addition of substrate to the corresponding mixture of enzyme and inhibitor preincubated for 10 minutes.

IMP-1 beta-lactamase = IMP-1 beta-lactamase (Serratia marcescens, UniProt P52699); test: Spectrophotometric nitrocefin hydrolysis inhibition assay, IMP-1
AmpC = settings: read-out: Inhibitory Potency (IC50) AmpC; cited from earlier work
[2] = target: TEM-1 β-lactamase, Drug Resistant Mutants and AmpC β-lactamase; test: Average Ki over TEM-1, drug resistant mutants and AmpC; type: biochemical; settings: mean over TEM-1, TEM-12, TEM-17, TEM-30, TEM-40, AmpC
Method: as §1

[3] = Microsomal stability (T1/2); type: in vitro ADME; settings: microsomes
TEM-1 = TEM-1 (Escherichia coli, UniProt P62593); test: TEM-1 binding enthalpy (ΔH)
[4] = test system: Methicillin-resistant (MRSA) Staphylococcus aureus; test: Oxacillin MIC in presence of compound, MRSA; type: cell-based
[5] = test system: Vancomycin-resistant (VRSA) Staphylococcus aureus; test: Oxacillin MIC in presence of compound, VRSA; type: cell-based
[6] = Oxacillin MIC with compound at 4 μg/mL

IMP-1 beta-lactamase, sequence (P52699 19-246, looked up): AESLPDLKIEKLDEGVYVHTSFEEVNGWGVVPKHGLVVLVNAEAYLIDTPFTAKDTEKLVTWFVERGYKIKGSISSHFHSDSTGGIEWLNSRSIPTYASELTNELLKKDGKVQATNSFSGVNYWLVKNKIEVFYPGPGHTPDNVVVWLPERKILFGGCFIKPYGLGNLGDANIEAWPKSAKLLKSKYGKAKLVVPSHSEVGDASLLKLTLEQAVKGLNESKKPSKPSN
AmpC β-lactamase, sequence (P00811 20-377): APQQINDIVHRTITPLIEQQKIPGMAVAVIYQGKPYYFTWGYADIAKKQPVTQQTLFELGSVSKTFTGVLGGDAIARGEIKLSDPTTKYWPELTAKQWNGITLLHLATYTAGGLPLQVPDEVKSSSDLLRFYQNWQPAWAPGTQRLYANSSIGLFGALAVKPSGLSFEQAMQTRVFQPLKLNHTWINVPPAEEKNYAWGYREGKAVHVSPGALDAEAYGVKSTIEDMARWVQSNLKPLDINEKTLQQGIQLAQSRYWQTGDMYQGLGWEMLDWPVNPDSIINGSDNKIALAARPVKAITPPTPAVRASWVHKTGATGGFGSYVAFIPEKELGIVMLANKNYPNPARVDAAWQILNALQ
wild type TEM-1 β-lactamase, sequence (P62593 24-286 limits assumed): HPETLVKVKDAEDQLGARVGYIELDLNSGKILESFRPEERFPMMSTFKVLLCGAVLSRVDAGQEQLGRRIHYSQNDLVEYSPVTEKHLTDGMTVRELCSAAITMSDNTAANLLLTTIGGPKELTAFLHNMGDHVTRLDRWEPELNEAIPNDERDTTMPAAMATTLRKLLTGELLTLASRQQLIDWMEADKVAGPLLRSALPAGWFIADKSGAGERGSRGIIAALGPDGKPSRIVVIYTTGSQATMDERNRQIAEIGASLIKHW
HSA, sequence (P02768 25-609): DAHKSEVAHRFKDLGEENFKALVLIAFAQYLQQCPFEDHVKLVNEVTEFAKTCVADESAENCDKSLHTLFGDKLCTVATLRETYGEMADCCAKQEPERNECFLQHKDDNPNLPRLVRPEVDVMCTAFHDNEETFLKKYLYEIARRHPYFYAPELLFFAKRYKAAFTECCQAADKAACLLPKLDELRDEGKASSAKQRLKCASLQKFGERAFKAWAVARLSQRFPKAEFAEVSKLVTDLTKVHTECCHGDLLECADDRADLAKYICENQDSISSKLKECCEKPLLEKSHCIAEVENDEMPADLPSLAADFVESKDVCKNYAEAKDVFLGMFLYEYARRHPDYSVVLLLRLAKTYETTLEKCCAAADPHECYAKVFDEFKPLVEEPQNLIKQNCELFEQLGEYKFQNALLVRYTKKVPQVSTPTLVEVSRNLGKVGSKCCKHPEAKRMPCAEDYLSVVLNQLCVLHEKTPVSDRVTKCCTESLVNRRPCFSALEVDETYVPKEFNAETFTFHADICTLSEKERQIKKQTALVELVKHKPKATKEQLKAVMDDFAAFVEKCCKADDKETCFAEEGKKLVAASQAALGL
TEM-1, sequence (P62593 24-286 limits assumed): as the sequence (P62593 24-286 limits assumed) above

Row | SMILES | Kd (HSA) | solubility (Solubility) [µM] | IC50 (AmpC β-lactamase) [nM] | IC50 [1] [nM] | IC50 (IMP-1 beta-lactamase) [nM] | half-life [3] [min] | other results
1 | O=S(=O)(/C=C/c1cccc(Cl)c1)Nc1ccc(OCc2cccc(Cl)c2)cc1 [ef-rs-09-030] | 301 ± 65 nM | 6 (≈ 2.61 µg/mL) | 553 ± 58 | 85 ± 21 | 63 ± 8 | – | –
3 | O=S(=O)(/C=C/c1cccc(Cl)c1)N(Cc1cccc(Cl)c1)c1cccc(OCc2cccc(Cl)c2)c1 [ef-rs-08-052, (E)-N-(3-chlorobenzyl)-N-(3-(3-chlorobenzyloxy)phenyl)-2-(3-chlorophenyl)ethenesulfonamide] | – | – | – | – | – | – | Ki (AmpC β-lactamase): 67 nM; Ki (IMP-1 beta-lactamase): 203 ± 51 nM
4 | O=S(=O)(/C=C/c1cccc(Br)c1)Nc1cccc(-c2nnn(Cc3cccc(Cl)c3)n2)c1 | – | – | – | – | – | – | Ki (AmpC β-lactamase): 182 nM; Ki [2]: 362 nM; mode of inhibition of TEM-1 beta-lactamase ([1]; double reciprocal plot, FIG. 3): competitive inhibition
5 | COc1ccc(NS(=O)(=O)/C=C/c2cccc(Cl)c2)cc1OCc1cccc(Cl)c1 [ef-rs-04-091] | 4080 nM and 4260 nM | 19 (≈ 8.82 µg/mL) | 671 ± 238 | – | 347 ± 43 | 70 ± 8 | TEM-1 ΔH (TEM-1): +1.75 kcal/mol
6 | COc1cc(NS(=O)(=O)/C=C/c2cccc(Cl)c2)ccc1OCc1cccc(Cl)c1 [ef-rs-09-029] | 484 ± 76 nM | 8 (≈ 3.71 µg/mL) | 706 ± 66 | 406 ± 77 | 171 ± 20 | – | –
7 | O=S(=O)(/C=C/c1cccc(Cl)c1)N(Cc1cccc(Cl)c1)c1cccc(Cl)c1 [ef-rs-03-075] | – | – | – | – | – | – | Ki ([1]; 25° C., 50 mM sodium phosphate, 5% DMSO, pH 7.0, nitrocefin 167 μM, read-out: Ki TEM-1 (WT)): 82 ± 12 nM; Ki (IMP-1 beta-lactamase): 496 ± 57 nM
8 | COc1cccc(/C=C/S(=O)(=O)Nc2cccc(OCc3cccc(Cl)c3)c2)c1 [ef-rs-05-054] | 97.5 nM and 202 nM | 6 (≈ 2.58 µg/mL) | 555 ± 36 | – | 734 ± 106 | 59 ± 6 | TEM-1 ΔH (TEM-1): +2.32 kcal/mol
9 | O=S(=O)(/C=C/c1cccc(C(F)(F)F)c1)Nc1cccc(-c2nnn(Cc3cccc(Cl)c3)n2)c1 [ef-rs-05-076] | – | – | – | – | – | – | Ki (AmpC β-lactamase): 80 nM; Ki [2]: 176 nM
10 | CC1(C)[C@H](C(=O)O)N2C(=O)C[C@H]2S1(=O)=O [Sulbactam] | – | – | – | – | – | – | IC50 (AmpC): ≥ 3800 nM
11 | COc1ccc(NS(=O)(=O)/C=C/c2cccc([N+](=O)[O-])c2)cc1OCc1cccc(Cl)c1 [ef-rs-05-080] | 4580 nM and 5350 nM | 3 (≈ 1.42 µg/mL) | 563 ± 63 | – | 1100 ± 40 | 37 ± 4 | –
12 | O=S(=O)(/C=C/c1cccc(Cl)c1)Nc1cccc(OCc2cccc(F)c2)c1 [ef-rs-09-012] | 49 nM and 52 nM | 7 (≈ 2.93 µg/mL) | 846 ± 100 | 523 ± 84 | 157 ± 12 | 81 ± 14 | –
13 | COc1ccc(NS(=O)(=O)/C=C/c2cccc(Cl)c2)cc1O [ef-rs-09-014] | 2510 ± 1780 nM | 450 (≈ 153 µg/mL) | 3750 ± 500 | 2470 ± 50 | 4690 ± 270 | < 5 | –
14 | O=S(=O)(/C=C/c1cccc(Cl)c1)Nc1cccc(OCc2cccc(Cl)c2)c1 [ef-rs-08-048] | 113 nM and 252 nM | 19 (≈ 8.25 µg/mL) | 477 ± 59 | – | 487 ± 90 | 120 ± 10 | MIC (MRSA) [4 μg/mL] [4, 6]: 2; reduction of Oxacillin MIC ([4]; compound at 4 μg/mL): 8 fold; MIC (VRSA) [4 μg/ml] [5, 6]: 0.25; reduction of Oxacillin MIC ([5]; compound at 4 μg/mL): 8 fold
15 | O=C(O)[C@H]1/C(=C/CO)O[C@@H]2CC(=O)N21 [Clavulanic Acid] | – | – | – | – | – | – | IC50 (AmpC): ≥ 59000 nM
16 | COc1cccc(COc2cc(NS(=O)(=O)/C=C/c3cccc(Cl)c3)ccc2OC)c1 [ef-rs-09-018] | 348 ± 53 nM | 50 (≈ 23 µg/mL) | 1070 ± 360 | 702 ± 91 | 256 ± 33 | 22 ± 6 | –
